{"source": "patent US7266458B2", "about": "“BioMAP analysis” (Bioseek, Inc., priority 2000, dated 2007)", "molecules": {"B1": {"name": "IFN-γ: cytokine added to HUVEC (protein)", "chain": "QDPYVKEAENLKKYFNAGHSDVADNGTLFLGILKNWKEESDRKIMQSQIVSFYFKLFKNFKDDQSIQKSVETIKEDMNVKFFNSNKKKRDDFEKLTNYSVTDLNVQRKAIHELIQVMAELSPAAKTGKRKRSQMLFRGRRASQ"}}, "key": {"[1]": {"test_system": "human umbilical vein endothelial cells (HUVEC)", "assay": "Optimized inflammatory assay combination (IL-1+TNF-α+IFN-γ) with added agents, cell-based ELISA biomap", "settings": "for reference biomaps compared by pattern similarity and cluster analysis: hierarchical clustering, FIG. 4C; for biomap in the optimized assay combination: 10 μM NHGA, 200 YM PDTC, 9 μM PD098059, 125-500 μM ibuprofen, TNF-α+IFN-γ+IL-1, 24 hours", "method": "After 24 hours, cultures are washed and evaluated for the cell surface expression of ICAM-1 (1), VCAM-1 (2), E-selectin (3), IL-8 (4), CD31 (5), HLA-DR (6) and MIG (7) by cell-based ELISA performed as described above.\nConfluent cultures of HUVEC cells are treated with TNF-α (5 ng/ml)+IFN-γ (100 ng/ml)+IL-1 (1 ng/ml) in the presence or absence of agents or buffers at the concentrations indicated in Table 1. Compounds are obtained from commercial sources and prepared in a suitable buffer (water, base media, DMSO, methanol or ethanol). After 24 hours, cultures are washed and evaluated for the cell surface expression of ICAM-1 (1), VCAM-1 (2), E-selectin (3), IL-8 (4), CD31 (5), HLA-DR (6) and MIG (7) by cell-based ELISA performed as described above. A color-coded representation of the resulting biomaps developed from the data is shown. […] Control assay combinations for each agent include an appropriate concentration of the diluent buffer.\nReadout patterns are analyzed by hierarchical clustering techniques, and are visualized as a tree diagram in which a) each terminal branch point represents the readout pattern from one assay combination in one experiment; b) the length of the vertical distance from the upper horizontal line (no change and control patterns) to the termini are related to the extent of difference in the readout pattern from the control environment pattern; and c) the distance along, the branches from one terminal pattern value to another reflects the extent of difference between them. Similar patterns are thus clustered together."}, "[2]": {"test_system": "human umbilical vein endothelial cells (HUVEC)", "assay": "Morpholino antisense in HUVEC, cell surface expression by flow cytometry", "type": "cell-based", "description": "Morpholino phosphorodiamidate (MF) antisense oligonucleotides are used. Other chemical classes of antisense oligonucleotides that can be substituted for morpholinos include but are not limited to phosphorotioate oligonucleotides, N3′-P5′ phosphoramidate oligonucleotides (NP), locked nucleic acid (LNA), 2′-O-methoxyethyl nucleic acid (MOE), 2′-fluoro-arabinonucleic acid (FANA), peptide nucleic acids (PNA) (reviewed in Toulme, Nature Biotech. 19:17, 2001); siRNA (Elbashir et al. (2000) Nature 411:494-498); ribozymes (Kawasaki et al. (2002) Nat. Biotech 20:376-380); standard antisense (Veres et al. (1998) J. Virol. 72:1894-1901). In the present example, antisense oligonucleotides for TNF-R1 (p55) (5′-[…]-3′)(SEQ ID NO:1), and the beta-globin control oligo (5′-[…]-3′)(SEQ ID NO:2) (Gene Tools Inc.) are used. The transfection mixture is prepared by mixing […] of 200 mM EPEI (Ethoxylated PolyEthylenlmine), vortexed, incubated at room temperature for 20 minutes, and then mixed with 3.5 ml of serum-free media to give a final 0.6 μM morpholino concentration.\nHUVEC cells are plated the day before in 24-well plates at 4-6×10e4 cells/well. Cells are washed once with serum-free media and incubated with 0.4 ml of the morpholino transfection mixture at 37° C. for 3 hours. Morpholino is removed, regular media ([…] Growth Media with 2% fetal calf serum, Clonetics) is added and cells allowed to recover overnight. The efficiency of loading of cells with morphino is monitored in cells incubated with a fluorescent morpholino, and is typically essentially 100 percent. HUVEC cells are then treated with either TNF-α (0.5 ng/ml), or IL-1 (1 ng/ml), or media only. After 4 hours, cells are harvested and evaluated for the cell surface expression of ICAM-1 (1), VCAM-1 (2), E-selectin (3), and CD31 (4) by flow cytometry. […] The TNF-R1 antisense specifically blocks induction of ICAM-1 and VCAM-1 by TNF-α, while it has no effect on induction of the same markers by the independent cell surface receptor for IL-1."}, "[3]": {"test_system": "human umbilical vein endothelial cells (HUVEC)", "assay": "Apoptosis assay panel (ceramide, TNF-α) with LDH release and cell-based ELISA", "settings": "factor added to endothelial cell cultures, vs basal conditions", "from_the_text": "A panel of assay combinations that reproduces aspects of the response of the endothelial cells to inflammatory processes and stimuli enhancing apoptosis is used.\nRetroviral vectors derived from the MSCV-based pMSCVneo vector (Clontech) are used to express genes in the cultured endothelial cells. […] Test genes are inserted downstream of the MSCV LTR, the marker gene is the enhanced green fluorescent protein (GFP) and the IRES is 600 bp fragment from EMCV virus (Jang, J. Virol. 63:1651, 1989). […] Retroviral vector plasmid DNA is transfected into AmphoPack-293 cells (Clontech) by modified calcium phosphate method according to manufacturer's protocol (MBS transfection kit, Stratagene). Cell supernatants are harvested 48 hours post-transfection, filtered to remove cell debris (0.45 pm) and transferred onto exponentially growing HUVEC cells. DEAE dextran (conc lopg/ml) is added to facilitate vector transduction. After a 5-8 hour incubation period viral supernatants are removed and cells cultured for an additional 40 hours. Gene transfer efficiency is determined by FACS, and is typically ≧80 percent. […] After 24 hours, transduced cells are evaluated for the surface expression ICAM-1 (1), VCAM-1 (2), and MIG (3) by cell-based ELISA for biomap analysis. For the expanded biomap, cell supernatants at 24 hours are collected and analyzed for the presence of LDH (4)."}, "[4]": {"test_system": "human umbilical vein endothelial cells (HUVEC)", "type": "cell-based", "parameters": "key: Active BioMap profiles (indicated as “yes”) were significantly different from the profile obtained with the control vector; BioMAP profiles that were not different from control vector are indicated as “—”", "settings": "NFkB Pathway genes; TNF-alpha, IL-1, IFN-gamma individually or in combination; vs control vector, p < 0.05, n = 3", "quoted_text": "High-titer retrovirus preparations are generated by transient transfection of vector construct into a retroviral packaging cell line (AmphoPack-293;Clontech). […] Expression of BioMAP markers (ICAM-1, VCAM, etc.) is measured by a cell-based ELISA technique (Melrose, 1998, supra) that has been optimized such that changes in expression levels of >20% can be routinely detected as statistically significant effects (p<0.05). […] Cells were stained with the NGFr specific monoclonal antibody (Chemicon).\nIn the lower two panels IFN-gamma was added to all samples. Average values (ELISA OD) from triplicate samples are shown, error bars indicate standard deviation. Control is HUVEC transduced with the “empty” vector, which only encodes NGFr marker. Data are from a representative experiment. Results were reproduced in at least two experiments with HUVEC cells from different donors.\nGene over-expression vectors were generated for many members of the NFκB and Jak/STAT pathways, and measured BioMAP profiles in transduced HUVEC cells by a cell-based ELISA technique (Melrose, 1998, supra), in the presence of TNF-alpha, IL-1, IFN-gamma, individually or in combination. […] Average values (ELISA OD) from triplicate samples are shown. Control (_-_) is HUVEC transduced with the “empty” retroviral vector, which only encodes NGFr marker. Data shown are from a representative experiment."}, "[5]": {"test_system": "human umbilical vein endothelial cells (HUVEC)", "assay": "Multiplex assay combinations for distinguishing mechanism of action (single cytokines, activating anti-p55)", "type": "cell-based", "settings": "20 μM AA861, 10 μM NHGA", "method": "Confluent cultures of HUVEC cells are treated with TNF-α (5 ng/ml), IFN-γ (100 ng/ml), IL-1 (20 ng/ml), the combination of TNF-α+IFN-γ+IL-1, or media (no cytokine) in the presence or absence of neutralizing anti-TNF-α, 20 μM AA861 or 10 μM NHGA. After 24 hours, cultures are washed and evaluated for the cell surface expression of ICAM-1 (1), VCAM-1 (2), E-selectin (3), IL-8 (4), and MIG (5) by cell-based ELISA performed as described in Example 1. A graphical representation of the resulting biomaps derived from the data is shown in FIG. 5, coded as described above.\nConfirmation is performed by evaluating the test agent in assay combinations that include both physiologic and alternative pathway activators. Confluent cultures of HUVEC cells are treated with TNF-α (5 ng/ml), IL-1 (20 ng/ml), an activating antibody against the TNF-α receptor p55, or media. After 24 hours, cultures are washed and evaluated for the cell surface expression of ICAM-1 (1), VCAM-1 (2), E-selectin (3), CD31 (4), and MIG (5) by cell-based ELISA performed as described above. A graphical representation of the resulting biomap, prepared from the data is shown in FIG. 6, coded as described above."}, "[6]": {"test_system": "human umbilical vein endothelial cells (HUVEC)", "assay": "HUVEC treated with proinflammatory cytokines, readout parameters by cell-based ELISA", "settings": "HUVEC cultured with cytokine(s) 24 hours, vs basal medium", "quoted_text": "Primary human umbilical vein endothelial cells (HUVEC) are used. […] 2×10^4 cells/ml are cultured to confluence in EGM-2 (Clonetics).\nAfter 24 hours, cultures are washed and evaluated for the presence of the parameters ICAM-1 (1), VCAM-1 (2), E-selectin (3), IL-8 (4), CD31 (5), HLA-DR (6) and MIG (7) by cell-based ELISA as described (Melrose, J. Immunol. 161:2457, 1998). For this, plates are blocked with 1% Blotto for 1 hr, and treated with primary antibodies (obtained from Pharmingen and Becton Dickinson) at 1 ng/ml for 2 hr. After washing, secondary peroxidase-conjugated anti-mouse IgG antibody (Promega) at 1:2500 is applied for 45 min. After washing, TMB substrate (Kierkegaard & Perry) is added and color developed. Development is stopped by addition of H2SO4 and the absorbance at 450 nm (subtracting the background absorbance at 600 nm) is read with a Molecular Dynamics plate reader. The relative expression levels of each parameter are indicated by the OD at 450 nm shown along the y-axis. The mean +/−SD from triplicate samples is shown.\nAfter 24 hours, cultures are washed and evaluated for the presence of the parameters ICAM-1 (1), VCAM-1 (2), E-selectin (3), IL-8 (4), CD31 (5), HLA-DR (6) and MIG (7) by cell-based ELISA performed as described above, and are reported as the OD at 450 nm. The mean +/−SD from triplicate samples are shown. * indicates p<0.05 comparing results obtained with the two separate conditions."}, "[7]": {"settings": "0.6 μM morpholino, IL-1 1 ng/ml, 4 hours"}, "[8]": {"settings": "0.6 μM morpholino, TNF-α 0.5 ng/ml, 4 hours"}}, "data": [{"molecule": "O=c1cc(-c2ccc(O)cc2)oc2cc(O)cc(O)c12", "note": "[apigenin]", "values": [{"measurement": "reference biomaps compared by pattern similarity and cluster analysis", "setting": "[1]", "value": "have similar reference biomaps and cluster together"}]}, {"molecule": "TNF-R1 antisense: morpholino antisense oligonucleotide for TNF-R1 (p55), 5′-AGGTCAGGCACGGTGGAGAGGC-3′ (SEQ ID NO:1) (all phosphorodiamidate morpholino (PMO))", "values": [{"measurement": "biomap vs control oligo biomap upon treatment with TNF-α", "setting": "[2]", "value": "altered biomap"}, {"measurement": "induction of ICAM-1 by IL-1", "setting": "[2]; [7]", "value": "no effect"}, {"measurement": "induction of VCAM-1 by IL-1", "setting": "[2]; [7]", "value": "no effect"}, {"measurement": "induction of ICAM-1 by TNF-α", "setting": "[2]; [8]", "value": "blocks"}, {"measurement": "induction of VCAM-1 by TNF-α", "setting": "[2]; [8]", "value": "blocks"}]}, {"molecule": "ceramide", "values": [{"measurement": "cell damage as release of cytoplasmic lactate dehydrogenase into the supernatant", "setting": "[3]", "value": "enhanced"}]}, {"molecule": "O=C(NC1=CC(=O)c2ccccc2C1=O)c1ccccc1", "note": "[PPM-18]", "values": [{"measurement": "reference biomaps compared by pattern similarity and cluster analysis", "setting": "[1]", "value": "have similar reference biomaps and cluster together"}]}, {"molecule": "CC(C)Cc1ccc(C(C)C(=O)O)cc1", "note": "(stereo not drawn) [ibuprofen]", "values": [{"measurement": "biomap in the optimized assay combination", "setting": "[1]", "value": "visually different representations of biomaps"}]}, {"molecule": "S=C(S)N1CCCC1", "note": "[PDTC, pyrrolidine dithiocarbamate]", "values": [{"measurement": "biomap in the optimized assay combination", "setting": "[1]", "value": "altered biomaps"}, {"measurement": "reference biomaps compared by pattern similarity and cluster analysis", "setting": "[1]", "value": "have similar reference biomaps and cluster together"}]}, {"molecule": "TNFA", "values": [{"measurement": "BioMAP readout", "setting": "[4]", "value": "yes"}]}, {"molecule": "C[C@]12C=CC(=O)C=C1CC[C@@H]1[C@@H]2[C@@H](O)C[C@@]2(C)[C@H]1CC[C@]2(O)C(=O)CO", "note": "[prednisolone]", "values": [{"measurement": "reference biomaps compared by pattern similarity and cluster analysis", "setting": "[1]", "value": "related reference biomaps that are distinct from those of NFκB pathway inhibitors"}]}, {"molecule": "COc1cccc(-c2cc(=O)c3ccccc3o2)c1N", "note": "[PD098059]", "values": [{"measurement": "biomap in the optimized assay combination", "setting": "[1]", "value": "altered biomaps"}, {"measurement": "reference biomaps compared by pattern similarity and cluster analysis", "setting": "[1]", "value": "remain in the same cluster"}]}, {"molecule": "CC(Cc1ccc(O)c(O)c1)C(C)Cc1ccc(O)c(O)c1", "note": "(stereo not drawn) [NHGA, nordihydroguaiaretic acid]", "values": [{"measurement": "biomap in the optimized assay combination", "setting": "[1]", "value": "altered biomaps"}, {"measurement": "reference biomaps compared by pattern similarity and cluster analysis", "setting": "[1]", "value": "have similar reference biomaps and cluster together"}, {"measurement": "cytokine signaling pathways targeted in the panel", "setting": "[5]", "value": "target multiple cytokine signaling pathways"}]}, {"molecule": "B1", "values": [{"measurement": "ICAM-1 level", "setting": "[6]; TNF-α 5 ng/ml, IFN-γ 100 ng/ml, IL-1 1 ng/ml", "value": "increased"}, {"measurement": "HLA-DR level", "setting": "[6]", "value": "increased"}, {"measurement": "MIG level", "setting": "[6]", "value": "increased"}]}]}
